Experiments:
[1] = test system: histamine induced bronchospasm; assay: protection by aerosol against histamine induced bronchospasm in guinea pig; format: in vivo; conditions: in words, from Table I
Method: (§1) These tests include, among others, a test for effect on isolated smooth muscle from guinea pig ileum and rat uterus, a test for effect on histamine induced bronchospasm in guinea pig, a test for effects on dog blood pressure, a test for induction of diarrhea in mice, and a test for the induction of abortion in early pregnant rats.
^(b) Per cent protection by 100 μg/ml aerosol dose for histamine
induced bronchospasm in the guinea pig.

early pregnant rat = assay: induction of abortion in early pregnant rats; format: in vivo
Description: as §1
On the basis of the difference seen in the rat uterus and guinea pig ileum tests with 19-oxaprostaglandin E2, one would expect to have a reduction of the unpleasant gastrointestinal side effects which were encountered when natural PGE2 was employed as an abortion inducer (Lancet, 536, 1971).

estrogenized rat uterus = assay: spasmogenic effect on estrogenized rat uterus in vitro; format: tissue-based; conditions: in words; rat uterus vs guinea pig ileum, Table I
Description: as §1
^(c) Threshold dose for spasmogenic effect on estrogenized rat uterus

| Structure (SMILES) | bronchodilator selectivity versus natural PGE2 [1] | effectiveness relative to natural PGE2 in inducing abortion (early pregnant rat) | tissue selectivity (estrogenized rat uterus) |
| --- | --- | --- | --- |
| CCOCCC[C@H](O)/C=C/[C@H]1[C@H](O)CC(=O)[C@@H]1C/C=C\CCCC(=O)O [19-oxa-ω-homo-PGE2, 9-oxo-11α,15α-dihydroxy-19-oxa-cis-5-trans-13-w-homo-prostadienoic acid] | more selective bronchodilator than natural PGE2 | – | – |
| COCCC[C@H](O)/C=C/[C@H]1[C@H](O)CC(=O)[C@@H]1C/C=C\CCCC(=O)O [19-oxa PGE2, 9-oxo-11α,15α-dihydroxy-19-oxa-cis-5-trans-13-prostadienoic acid] | – | as effective as natural PGE2 | advantage of tissue selectivity |
